From patent publication US11505536B2, “Dihydroorotate dehydrogenase inhibitors” (Janssen Biotech, Inc., priority 2019, dated 2022)
pIC50: −log10 of the molar value.

Experiments:
[1] = tested on: MOLM-13 cells (human acute myeloid leukemia cells); assay: MOLM-13 Cellular Assay; format: cell-based; conditions: 72 hours exposure, cell viability by CellTiter-Glo
How it was run: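 MOLM-13 AML cells, seeded at 5,000/well in RPMI 1640 with 10% FBS, were treated with compounds right after seeding for 72 h at 37 °C, 5% CO2. Viability read by CellTiter-Glo luminescence.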

human DHODH = human DHODH (Homo sapiens (Human), UniProt Q02127); assay: DHODH Enzymatic Assay; format: biochemical; conditions: purified human DHODH, DCIP absorbance, end-point mode; read-out: hDHODH IC50
How it was run: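 Purified human DHODH in […] HEPES pH 7.5, 150 mM NaCl, 0.5 mM EDTA, 0.1% Triton X-100; reaction started with substrate mix of 20 mM DHO, 5 mM CoQ6, 1 mM DCIP. End-point read as DCIP reduction (absorbance ~600 nm) after brequinar quench.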

human DHODH, sequence (Q02127 whole entry): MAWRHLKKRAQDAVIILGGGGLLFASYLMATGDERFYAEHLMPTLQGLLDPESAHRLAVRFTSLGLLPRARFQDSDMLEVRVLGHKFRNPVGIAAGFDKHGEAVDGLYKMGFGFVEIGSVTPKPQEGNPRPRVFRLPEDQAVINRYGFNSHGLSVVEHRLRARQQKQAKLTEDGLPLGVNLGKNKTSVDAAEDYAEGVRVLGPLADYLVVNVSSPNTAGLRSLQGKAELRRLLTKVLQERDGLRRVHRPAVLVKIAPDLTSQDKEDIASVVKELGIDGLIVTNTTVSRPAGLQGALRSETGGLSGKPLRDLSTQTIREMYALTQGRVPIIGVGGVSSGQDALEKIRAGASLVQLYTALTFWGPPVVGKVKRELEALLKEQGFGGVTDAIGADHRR

Compound | pIC50 ([1]; Homo sapiens, MOLM-13, 72 h) | pIC50 (human DHODH) | pIC50 [1]
CCn1c(CO)nn(-c2nc3c([C@H](C)C(F)(F)F)cn(-c4ccccc4C)c(=O)c3cc2F)c1=O [Example 37, (S)-2-(4-Ethyl-3-(hydroxymethyl)-5-oxo-4,5-dihydro-1H-1,2,4-triazol-1-yl)-3-fluoro-6-(o-tolyl)-8-(1,1,1-trifluoropropan-2-yl)-1,6-naphthyridin-5(6H)-one] | 8.52 | 8.73 | 
CCn1c(CO)nn(-c2cc3c(C(C)C)cn(-c4scnc4C)c(=O)c3cc2F)c1=O [Example 39, 6-(4-Ethyl-3-(hydroxymethyl)-5-oxo-4,5-dihydro-1H-1,2,4-triazol-1-yl)-7-fluoro-4-isopropyl-2-(4-methylthiazol-5-yl)isoquinolin-1(2H)-one] | 7.40 | 7.89 | 
CCn1c(CO)nn(-c2cc3c(C(C)C)cn(-c4cc(C)ccc4F)c(=O)c3cc2F)c1=O [Example 41, 6-(4-Ethyl-3-(hydroxymethyl)-5-oxo-4,5-dihydro-1H-1,2,4-triazol-1-yl)-7-fluoro-2-(2-fluoro-5-methylphenyl)-4-isopropylisoquinolin-1(2H)-one] | 8.70 | 8.53 | 
C=C(C)c1cn(-c2cc(C)ccc2F)c(=O)c2cc(F)c(-n3nc(CO)n(CC)c3=O)cc12 [Example 42, 6-(4-Ethyl-3-(hydroxymethyl)-5-oxo-4,5-dihydro-1H-1,2,4-triazol-1-yl)-7-fluoro-2-(2-fluoro-5-methylphenyl)-4-(prop-1-en-2-yl)isoquinolin-1(2H)-one] | 9.05 | 8.77 | 
CCn1c(CO)nn(-c2cc3c(C(C)C)cn(-c4nc(OC)ccc4Cl)c(=O)c3cc2F)c1=O [Example 49, 2-(3-Chloro-6-methoxypyridin-2-yl)-6-(4-ethyl-3-(hydroxymethyl)-5-oxo-4,5-dihydro-1H-1,2,4-triazol-1-yl)-7-fluoro-4-isopropylisoquinolin-1(2H)-one] | 8.70 | 8.96 | 
CCn1c(CO)nn(-c2cc3c(C(C)C)cn(-c4c(C)ccnc4OC)c(=O)c3cc2F)c1=O [Example 50, 6-(4-Ethyl-3-(hydroxymethyl)-5-oxo-4,5-dihydro-1H-1,2,4-triazol-1-yl)-7-fluoro-4-isopropyl-2-(2-methoxy-4-methylpyridin-3-yl)isoquinolin-1(2H)-one] | 8.15 | 8.56 | 
CCn1c(CO)nn(-c2cc3c(C4(C)CC4)cn(-c4c(F)cccc4Cl)c(=O)c3cc2F)c1=O [Example 58, 2-(2-Chloro-6-fluorophenyl)-6-(4-ethyl-3-(hydroxymethyl)-5-oxo-4,5-dihydro-1H-1,2,4-triazol-1-yl)-7-fluoro-4-(1-methylcyclopropyl)isoquinolin-1(2H)-one] | 8.40 | 8.06 | 
C=C(C)c1cn(-c2c(C)ccnc2OC)c(=O)c2cc(F)c(-n3nc(CO)n(CC)c3=O)cc12 [Example 59, 6-(4-Ethyl-3-(hydroxymethyl)-5-oxo-4,5-dihydro-1H-1,2,4-triazol-1-yl)-7-fluoro-2-(2-methoxy-4-methylpyridin-3-yl)-4-(prop-1-en-2-yl)isoquinolin-1(2H)-one] | 8.30 | 8.65 | 
C=C(C)c1cn(-c2c(C)n[nH]c2Cl)c(=O)c2cc(F)c(-n3nc(CO)n(CC)c3=O)cc12 [Example 60, 2-(5-Chloro-3-methyl-1H-pyrazol-4-yl)-6-(4-ethyl-3-(hydroxymethyl)-5-oxo-4,5-dihydro-1H-1,2,4-triazol-1-yl)-7-fluoro-4-(prop-1-en-2-yl)isoquinolin-1(2H)-one] | 8.40 | 9.54 | 
CCn1c(CO)nn(-c2cc3c(C(C)C)cn(-c4c(C)cnc(OC)c4Cl)c(=O)c3cc2F)c1=O [Example 61, 2-(3-Chloro-2-methoxy-5-methylpyridin-4-yl)-6-(4-ethyl-3-(hydroxymethyl)-5-oxo-4,5-dihydro-1H-1,2,4-triazol-1-yl)-7-fluoro-4-isopropylisoquinolin-1(2H)-one] | 8.70 | 9.21 | 
C=C(C)c1cn(-c2c(C)cnc(OC)c2Cl)c(=O)c2cc(F)c(-n3nc(CO)n(CC)c3=O)cc12 [Example 62, 2-(3-Chloro-2-methoxy-5-methylpyridin-4-yl)-6-(4-ethyl-3-(hydroxymethyl)-5-oxo-4,5-dihydro-1H-1,2,4-triazol-1-yl)-7-fluoro-4-(prop-1-en-2-yl)isoquinolin-1(2H)-one] | 8.70 | 9.08 | 
CCn1c(CO)nn(-c2cc3c(C(C)C)cn(-c4cc(OC)ccc4F)c(=O)c3cc2F)c1=O [Example 63, 6-(4-Ethyl-3-(hydroxymethyl)-5-oxo-4,5-dihydro-1H-1,2,4-triazol-1-yl)-7-fluoro-2-(2-fluoro-5-methoxyphenyl)-4-isopropylisoquinolin-1(2H)-one] | 8.70 | 8.56 | 

Now those with a higher pIC50 ([1]; Homo sapiens, MOLM-13, 72 h), led by results:

pIC50 ([1]; Homo sapiens, MOLM-13, 72 h) | pIC50 (human DHODH) | pIC50 [1] | Compound
9.40 | 9.45 |  | CCn1c(CO)nn(-c2nc3c(C(C)C)cn(-c4c(F)cccc4Cl)c(=O)c3cc2F)c1=O [Example 36, 6-(2-Chloro-6-fluorophenyl)-2-(4-ethyl-3-(hydroxymethyl)-5-oxo-4,5-dihydro-1H-1,2,4-triazol-1-yl)-3-fluoro-8-isopropyl-1,6-naphthyridin-5(6H)-one]
9.30 | 9.33 |  | CCn1c(CO)nn(-c2nc3c([C@@H](C)C(F)(F)F)cn(-c4ccccc4C)c(=O)c3cc2F)c1=O [Example 38, (R)-2-(4-Ethyl-3-(hydroxymethyl)-5-oxo-4,5-dihydro-1H-1,2,4-triazol-1-yl)-3-fluoro-6-(o-tolyl)-8-(1,1,1-trifluoropropan-2-yl)-1,6-naphthyridin-5(6H)-one]
9.10 | 9.10 |  | CCn1c(CO)nn(-c2nc3c(C(C)C)cn(-c4ccccc4C)c(=O)c3cc2F)c1=O [Example 40, 2-(4-Ethyl-3-(hydroxymethyl)-5-oxo-4,5-dihydro-1H-1,2,4-triazol-1-yl)-3-fluoro-8-isopropyl-6-(o-tolyl)-1,6-naphthyridin-5(6H)-one]
9.40 | 9.04 |  | C=C(C)c1cn(-c2cc(C)ccc2Cl)c(=O)c2cc(F)c(-n3nc(CO)n(CC)c3=O)cc12 [Example 43, 2-(2-Chloro-5-methylphenyl)-6-(4-ethyl-3-(hydroxymethyl)-5-oxo-4,5-dihydro-1H-1,2,4-triazol-1-yl)-7-fluoro-4-(prop-1-en-2-yl)isoquinolin-1(2H)-one]
9.15 | 8.65 |  | C=C(C)c1cn(-c2cc(OC)ccc2F)c(=O)c2cc(F)c(-n3nc(CO)n(CC)c3=O)cc12 [Example 44, 6-(4-Ethyl-3-(hydroxymethyl)-5-oxo-4,5-dihydro-1H-1,2,4-triazol-1-yl)-7-fluoro-2-(2-fluoro-5-methoxyphenyl)-4-(prop-1-en-2-yl)isoquinolin-1(2H)-one]
9.52 | 8.85 |  | C=C(C)c1cn(-c2ccccc2Cl)c(=O)c2cc(F)c(-n3nc(CO)n(CC)c3=O)cc12 [Example 45, 2-(2-Chlorophenyl)-6-(4-ethyl-3-(hydroxymethyl)-5-oxo-4,5-dihydro-1H-1,2,4-triazol-1-yl)-7-fluoro-4-(prop-1-en-2-yl)isoquinolin-1(2H)-one]
9.52 | 9.13 |  | C=C(C)c1cn(-c2ccccc2C)c(=O)c2cc(F)c(-n3nc(CO)n(CC)c3=O)cc12 [Example 46, 6-(4-Ethyl-3-(hydroxymethyl)-5-oxo-4,5-dihydro-1H-1,2,4-triazol-1-yl)-7-fluoro-4-(prop-1-en-2-yl)-2-(o-tolyl)isoquinolin-1(2H)-one]
9.15 | 8.92 |  | C=C(C)c1cn(-c2cc(OC)ccc2Cl)c(=O)c2cc(F)c(-n3nc(CO)n(CC)c3=O)cc12 [Example 47, 2-(2-Chloro-5-methoxyphenyl)-6-(4-ethyl-3-(hydroxymethyl)-5-oxo-4,5-dihydro-1H-1,2,4-triazol-1-yl)-7-fluoro-4-(prop-1-en-2-yl)isoquinolin-1(2H)-one]
≥ 9.70 | 9.57 | 10.00 | C=C(C)c1cn(-c2c(F)ccc(OC)c2Cl)c(=O)c2cc(F)c(-n3nc(CO)n(CC)c3=O)cc12 [Example 51, 2-(2-Chloro-6-fluoro-3-methoxyphenyl)-6-(4-ethyl-3-(hydroxymethyl)-5-oxo-4,5-dihydro-1H-1,2,4-triazol-1-yl)-7-fluoro-4-(prop-1-en-2-yl)isoquinolin-1(2H)-one]
≥ 9.70 | 9.58 | 10.00 | C=C(C)c1cn(-c2c(F)cccc2Cl)c(=O)c2cc(F)c(-n3nc(CO)n(CC)c3=O)cc12 [Example 52, 2-(2-Chloro-6-fluorophenyl)-6-(4-ethyl-3-(hydroxymethyl)-5-oxo-4,5-dihydro-1H-1,2,4-triazol-1-yl)-7-fluoro-4-(prop-1-en-2-yl)isoquinolin-1(2H)-one]
9.15 | 9.11 |  | CCn1c(CO)nn(-c2cc3c(C(C)C)nn(-c4ccccc4C)c(=O)c3cc2F)c1=O [Example 53, 6-(4-Ethyl-3-(hydroxymethyl)-5-oxo-4,5-dihydro-1H-1,2,4-triazol-1-yl)-7-fluoro-4-isopropyl-2-(o-tolyl)phthalazin-1(2H)-one]
9.40 | 9.36 |  | CCn1c(CO)nn(-c2cc3c(C(C)C)nn(-c4c(F)cccc4Cl)c(=O)c3cc2F)c1=O [Example 54, 2-(2-Chloro-6-fluorophenyl)-6-(4-ethyl-3-(hydroxymethyl)-5-oxo-4,5-dihydro-1H-1,2,4-triazol-1-yl)-7-fluoro-4-isopropylphthalazin-1(2H)-one]
9.30 | 9.34 |  | CCn1c(CO)nn(-c2cc3c(C(C)C)cn(-c4ccc(F)cc4C)c(=O)c3cc2F)c1=O [Example 64, 6-(4-Ethyl-3-(hydroxymethyl)-5-oxo-4,5-dihydro-1H-1,2,4-triazol-1-yl)-7-fluoro-2-(4-fluoro-2-methylphenyl)-4-isopropylisoquinolin-1(2H)-one]
